Measurements as given in patent US8952024B2, “Herbicidal pyrimidone derivatives” (E I du Pont de Nemours and Company, priority 2009, dated 2015).

How the values were obtained:
Experiment in all cases: Test B pre-/postemergence plant response
Type in all cases: in vivo
[1] = test system: bermudagrass (Cynodon dactylon)
Summary of the method: (§1)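 Ratings reflect visual comparison with untreated controls 13 to 15 days after application, from 0 (no effect) to 100 (complete control). Application was preemergence to seeded loam/sand soil or postemergence to 1- to 4-leaf plants, with compound in a non-phytotoxic, surfactant-containing solvent.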

[2] = test system: goosegrass (Eleusine indica)
Summary of the method: as §1

[3] = test system: green foxtail (Setaria viridis)
Summary of the method: as §1

[4] = test system: johnsongrass (Sorghum halepense)
Summary of the method: as §1

[5] = test system: kochia (Kochia scoparia)
Summary of the method: as §1

[6] = test system: lambsquarters (Chenopodium album)
Summary of the method: as §1

[7] = test system: large crabgrass (Digitaria sanguinalis)
Summary of the method: as §1

[8] = test system: ragweed (common ragweed, Ambrosia elatior)
Summary of the method: as §1

[9] = test system: soybean (Glycine max)
Summary of the method: as §1

[10] = test system: velvetleaf (Abutilon theophrasti)
Summary of the method: as §1

[11] = test system: wheat (Triticum aestivum)
Summary of the method: as §1

[12] = test system: woolly cupgrass (Eriochloa villosa)
Summary of the method: as §1

[13] = test system: yellow nutsedge (Cyperus esculentus)
Summary of the method: as §1

[14] = 31 g ai/ha, postemergence, scale 0 to 100, 0 is no effect, 100 is complete control
[15] = 62 g ai/ha, postemergence, 0 is no effect, 100 is complete control, 13 to 15 days
[16] = 250 g ai/ha, Preemergence, 0 to 100 scale
[17] = Postemergence, 125 g ai/ha, visual rating after 13 to 15 days, scale 0 (no effect) to 100 (complete control)
[18] = Postemergence, 250 g ai/ha, scale 0 to 100 (0 no effect, 100 complete control)
[19] = Preemergence, 31 g ai/ha, scale 0 to 100 (0 no effect, 100 complete control)
[20] = Preemergence, 62 g ai/ha, scale 0 to 100 (0 no effect, 100 complete control)
[21] = Preemergence, 125 g ai/ha, scale 0 to 100, 0 no effect, 100 complete control
[22] = Postemergence, 31 g ai/ha, 0 to 100 scale (0 no effect, 100 complete control)
[23] = Postemergence, 62 g ai/ha, scale 0 to 100 (0 no effect, 100 complete control)
[24] = Postemergence, 125 g ai/ha, scale 0 to 100 (0 no effect, 100 complete control)
[25] = Postemergence, 250 g ai/ha, scale 0 to 100 (0 no effect, 100 complete control), 13 to 15 days

CCCc1ncc(C(=O)C2=C(O)CCCC2=O)c(=O)n1-c1ccccc1C [Compound 73]
Plant response rating, Bermudagrass [1, 14]: 65
Bermudagrass plant response rating (0 to 100 scale) [1, 15]: 80
Plant response rating, Bermudagrass [1, 16]: 100
Plant response rating, Bermudagrass [1, 17]: 90
Plant response rating, Bermudagrass [1, 18]: 90
Plant response rating, Bermudagrass [1, 19]: 50
Plant response rating, Bermudagrass [1, 20]: 98
Plant response rating, Bermudagrass [1, 21]: 98
Plant response rating, Goosegrass [2, 14]: 65
Goosegrass plant response rating (0 to 100 scale) [2, 15]: 75
Plant response rating, Goosegrass [2, 16]: 100
Plant response rating, Goosegrass [2, 17]: 75
Plant response rating, Goosegrass [2, 18]: 80
Plant response rating, Goosegrass [2, 19]: 85
Plant response rating, Goosegrass [2, 20]: 98
Plant response rating, Goosegrass [2, 21]: 100
Plant response rating, Foxtail, Green [3, 14]: 70
Foxtail, Green plant response rating (0 to 100 scale) [3, 15]: 90
Plant response rating, Foxtail, Green [3, 16]: 80
Plant response rating, Foxtail, Green [3, 17]: 90
Plant response rating, Foxtail, Green [3, 18]: 95
Plant response rating, Foxtail, Green [3, 19]: 0
Plant response rating, Foxtail, Green [3, 20]: 30
Plant response rating, Foxtail, Green [3, 21]: 30
Plant response rating, Johnsongrass [4, 14]: 10
Johnsongrass plant response rating (0 to 100 scale) [4, 15]: 65
Plant response rating, Johnsongrass [4, 16]: 98
Plant response rating, Johnsongrass [4, 17]: 70
Plant response rating, Johnsongrass [4, 18]: 75
Plant response rating, Johnsongrass [4, 19]: 0
Plant response rating, Johnsongrass [4, 20]: 0
Plant response rating, Johnsongrass [4, 21]: 98
Plant response rating, Kochia [5, 14]: 75
Kochia plant response rating (0 to 100 scale) [5, 15]: 80
Plant response rating, Kochia [5, 16]: 90
Plant response rating, Kochia [5, 17]: 90
Plant response rating, Kochia [5, 18]: 90
Plant response rating, Kochia [5, 19]: 0
Plant response rating, Kochia [5, 21]: 80
Plant response rating, Lambsquarters [6, 14]: 85
Lambsquarters plant response rating (0 to 100 scale) [6, 15]: 98
Plant response rating, Lambsquarters [6, 16]: 100
Plant response rating, Lambsquarters [6, 17]: 100
Plant response rating, Lambsquarters [6, 18]: 100
Plant response rating, Lambsquarters [6, 19]: 95
Plant response rating, Lambsquarters [6, 20]: 98
Plant response rating, Lambsquarters [6, 21]: 100
Plant response rating, Crabgrass, Large [7, 14]: 80
Crabgrass, Large plant response rating (0 to 100 scale) [7, 15]: 85
Plant response rating, Crabgrass, Large [7, 16]: 100
Plant response rating, Crabgrass, Large [7, 17]: 90
Plant response rating, Crabgrass, Large [7, 18]: 95
Plant response rating, Crabgrass, Large [7, 19]: 85
Plant response rating, Crabgrass, Large [7, 20]: 98
Plant response rating, Crabgrass, Large [7, 21]: 100
Plant response rating, Ragweed [8, 14]: 75
Ragweed plant response rating (0 to 100 scale) [8, 15]: 80
Plant response rating, Ragweed [8, 17]: 85
Plant response rating, Ragweed [8, 18]: 85
Plant response rating, Ragweed [8, 19]: 45
Plant response rating, Ragweed [8, 20]: 60
Plant response rating, Ragweed [8, 21]: 75
Plant response rating, Soybean [9, 14]: 80
Soybean plant response rating (0 to 100 scale) [9, 15]: 85
Plant response rating, Soybean [9, 17]: 90
Plant response rating, Soybean [9, 18]: 95
Plant response rating, Velvetleaf [10, 14]: 95
Velvetleaf plant response rating (0 to 100 scale) [10, 15]: 100
Plant response rating, Velvetleaf [10, 17]: 100
Plant response rating, Velvetleaf [10, 18]: 100
Plant response rating, Velvetleaf [10, 19]: 100
Plant response rating, Velvetleaf [10, 20]: 100
Plant response rating, Velvetleaf [10, 21]: 100
Plant response rating, Wheat [11, 14]: 0
Wheat plant response rating (0 to 100 scale) [11, 15]: 35
Plant response rating, Wheat [11, 17]: 40
Plant response rating, Wheat [11, 18]: 50
Plant response rating, Wheat [11, 19]: 0
Plant response rating, Wheat [11, 20]: 0
Plant response rating, Wheat [11, 21]: 5
Plant response rating, Cupgrass, Woolly [12, 14]: 60
Cupgrass, Woolly plant response rating (0 to 100 scale) [12, 15]: 65
Plant response rating, Cupgrass, Woolly [12, 16]: 80
Plant response rating, Cupgrass, Woolly [12, 17]: 65
Plant response rating, Cupgrass, Woolly [12, 18]: 65
Plant response rating, Cupgrass, Woolly [12, 19]: 10
Plant response rating, Cupgrass, Woolly [12, 20]: 20
Plant response rating, Cupgrass, Woolly [12, 21]: 55
Plant response rating, Nutsedge, Yellow [13, 14]: 20
Nutsedge, Yellow plant response rating (0 to 100 scale) [13, 15]: 20
Plant response rating, Nutsedge, Yellow [13, 17]: 50
Plant response rating, Nutsedge, Yellow [13, 18]: 70
Plant response rating, Nutsedge, Yellow [13, 19]: 20
Plant response rating, Nutsedge, Yellow [13, 20]: 65
Plant response rating, Nutsedge, Yellow [13, 21]: 65

COCCn1c(-c2cccc(F)c2)ncc(C(=O)C2=C(O)C3CCC(C3)C2=O)c1=O (centres unmarked) [Compound 235]
Plant response rating, Bermudagrass [1, 22]: 98
Plant response rating, Bermudagrass [1, 23]: 98
Plant response rating, Bermudagrass [1, 24]: 100
Plant response rating, Bermudagrass [1, 25]: 100
Plant response rating, Goosegrass [2, 22]: 95
Plant response rating, Goosegrass [2, 23]: 98
Plant response rating, Goosegrass [2, 24]: 98
Plant response rating, Goosegrass [2, 25]: 100
Plant response rating, Foxtail, Green [3, 22]: 90
Plant response rating, Foxtail, Green [3, 23]: 90
Plant response rating, Foxtail, Green [3, 24]: 95
Plant response rating, Foxtail, Green [3, 25]: 98
Plant response rating, Johnsongrass [4, 22]: 70
Plant response rating, Johnsongrass [4, 23]: 80
Plant response rating, Johnsongrass [4, 24]: 100
Plant response rating, Johnsongrass [4, 25]: 100
Plant response rating, Kochia [5, 22]: 98
Plant response rating, Kochia [5, 23]: 100
Plant response rating, Kochia [5, 24]: 100
Plant response rating, Kochia [5, 25]: 100
Plant response rating, Lambsquarters [6, 22]: 98
Plant response rating, Lambsquarters [6, 23]: 100
Plant response rating, Lambsquarters [6, 24]: 100
Plant response rating, Lambsquarters [6, 25]: 100
Plant response rating, Crabgrass, Large [7, 22]: 98
Plant response rating, Crabgrass, Large [7, 23]: 98
Plant response rating, Crabgrass, Large [7, 24]: 98
Plant response rating, Crabgrass, Large [7, 25]: 100
Plant response rating, Ragweed [8, 22]: 98
Plant response rating, Ragweed [8, 23]: 100
Plant response rating, Ragweed [8, 25]: 100
Plant response rating, Soybean [9, 22]: 98
Plant response rating, Soybean [9, 23]: 100
Plant response rating, Soybean [9, 25]: 100
Plant response rating, Velvetleaf [10, 22]: 95
Plant response rating, Velvetleaf [10, 23]: 100
Plant response rating, Velvetleaf [10, 25]: 100
Plant response rating, Wheat [11, 22]: 45
Plant response rating, Wheat [11, 23]: 80
Plant response rating, Wheat [11, 25]: 80
Plant response rating, Cupgrass, Woolly [12, 22]: 95
Plant response rating, Cupgrass, Woolly [12, 23]: 100
Plant response rating, Cupgrass, Woolly [12, 24]: 100
Plant response rating, Cupgrass, Woolly [12, 25]: 100
Plant response rating, Nutsedge, Yellow [13, 22]: 45
Plant response rating, Nutsedge, Yellow [13, 23]: 45
Plant response rating, Nutsedge, Yellow [13, 24]: 55
Plant response rating, Nutsedge, Yellow [13, 25]: 60
